Data reported in patent publication US20240270771A1, “Compound containing phosphate group, pharmaceutical composition containing same, preparation method therefor and use thereof” (SHANGHAI RAISING PHARMACEUTICAL CO., LTD., priority 2021, published 2024).

What was measured:
[1] = system: scopolamine-induced acute memory dysfunction model; test: Jumping stand test, scopolamine-induced acute memory dysfunction model; assay type: in vivo, ICR mice; conditions: scopolamine 2 mg/kg i.p., compound 200 mg/kg gavage once a day 3 weeks; for Number of errors: model group 1.7 ± 0.5; for Latency period: model group 68.5 ± 80.0
Experimental: The mice employed in the present test were purchased from Xipuer-BIKAI Laboratory Animal Co., Ltd., and they were SPF grade ICR mice, 3-4 weeks old, weighing 16-18 g.
Scopolamine hydrobromide trihydrate was purchased from aladdin, Product No.: S107418; Purity: 98%.
Test article preparation: 100 mg of the compound to be tested was weighed and added to 10 mL of 0.7% CMC-Na to prepare a 10 mg/mL suspension for use.
The laboratory mice were randomly divided into groups (9 or 10 mice per group). The mice in each group were administrated at a dosage of 0.2 mL/10 g body weight by oral gavage once a day for three weeks.
The laboratory animals were administered by gavage for 3 consecutive weeks according to the above administration dosage/specification. Training was started on the last day of administration, and the test was conducted 24 hours later.
The laboratory animals were administered by gavage for 3 weeks, and scopolamine (mouse: 2 mg/kg) was injected intraperitoneally 0.5 hour after the last dose. The animals were trained with YLS-3 TB jumping stand detector and tested for memory acquisition function after 24 hours. The latency period (the time from the start of counting to the first time of jumping off the stand) and the number of errors (the number of electric shock) were recorded.
The YLS-3 TB jumping stand detector were divided into five compartments by transparent boards. The bottom of the compartment was covered with a copper grid and applied with a voltage of 50 V A rubber pad stand with a height of 3.5 cm and a diameter of 3.5 cm was placed in each compartment to serve as a safe area for mice to avoid electric shock. Training of laboratory mice before the formal test: the laboratory mice were placed in the small compartment with a stand to get familiar with the environment for 5 min (the five compartments were connected), and then electrified for stimulation (all the laboratory mice were on the grid at this time), at the voltage of 50 V and current of 1.00 mA. Mice have the habit of jumping from a high place. If they jump, they will be shocked to produce memory. The current was applied for 5 min, which served as the training process.
Testing: the animals were put on the stand in the jumping compartment one by one. The time interval for putting each animal was 5 s. After the first animal was put on the stand, the electricity was applied immediately. The electricity was applied for 6 min. At the end of applying electricity, data were printed, and the latency period (the time from the start of counting to the first time of jumping off the stand) and the number of errors (the number of electric shock during the testing period) were recorded. […]

[2] = Pharmacokinetic study, absorption test (TM and TDP in whole blood); assay type: in vivo, SD rats; conditions: same drug dose, single gavage, rats
Experimental: (§1) The SD rats used in this test were purchased from Zhejiang Charles rive Laboratory Animal Co., Ltd. Both male and female rats of SPF grade weighting about 250 g were used.
(§2) Preparation of the test article: a proper amount of test article was weighed and ground as fine powder in a mortar. A certain amount of the vehicle was added to a proper container, and then the ground test article was added to the container under magnetic stirring. The mixture was stirred until the appearance is uniform.
The SD rats were divided into 3 groups (6 rats in each group, half male and half female). […] Blood was collected (about 200 µL/time) before drug administration (0 min) and 3 min, 8 min, 15 min, 30 min, 1 h, 2 h, 3 h, 5 h, 8 h, 12 h, 24 h and 48 h after drug administration. Blood was anticoagulated with EDTA and placed on ice after collection. […]
(§3) The concentrations of TM and TDP in the samples were determined by HPLC-FLD.
(§4) The non-compartment model of the DAS software was used to calculate the pharmacokinetic parameters of TM and TDP in blood of rats after administration. The concentration of TM in the brain tissue after the drug administration in rats was measured, and the mean value and standard deviation were calculated. The area under the drug-time curve AUC was calculated using the trapezoidal method.

[3] = Pharmacokinetic study, brain distribution test (TM in brain and whole blood); assay type: in vivo, SD rats; conditions: single gavage to rats
Experimental: as §1, §2
The male SD rats were divided into three groups (16 rats in each group) (4 animals were sacrificed at 4 time points). […] The animals were sacrificed at 5 min, 1 h, 3 h, and 9 h after the administration. The brain was taken out immediately after sacrifice, rinsed with ice-cold water and rinsed. 50 mg of the brain tissue was weighed, added to 0.45 mL of 100 mM dipotassium hydrogen phosphate buffer (pH=5.0) and homogenized. Blood samples were taken simultaneously and anticoagulated with EDTA. After collection, blood samples were placed on ice. 150 μL of whole blood was taken and 150 μL of 5.2% perchloric acid was added to determine TM. Another 4 animals were gavage administered with normal saline for the determination of endogenous TM concentration. All samples were frozen and stored in a −80° C. refrigerator.
as §3, §4

| SMILES | Number of errors [1] | Latency period [1] [s] | TM and TDP exposures compared with BTMP and Comparative compound 2 administration groups [2] | t1/2 of TDP compared with BTMP or Comparative compound 2 administration group [2] | AUC of TM in the brain, times of that of BTMP administration group [3] [times] | AUC of TM in the brain, times of that of the Comparative compound 2 administration group [3] [times] | AUC of TM in the brain ([3]; trapezoidal method, calculated after deducting the concentration at time zero) [ng·h/g] |
| --- | --- | --- | --- | --- | --- | --- | --- |
| CCCC(CCC)C(=O)S/C(CCOP(=O)(O)O)=C(/C)N(C=O)Cc1cnc(C)nc1N [Compound 1, (Z)—S-(2-(N-((4-amino-2-methylpyrimidin-5-yl)methyl)formamido)-5-(phosphonooxy)pent-2-en-3-yl) 2-propylpentanethioate] | 0.8 ± 0.8 | 180.0 ± 105.9 | higher | significantly higher | 1.56 | 2.08 | 1156.6 |
| CCC(CC)C(=O)S/C(CCOP(=O)(O)O)=C(/C)N(C=O)Cc1cnc(C)nc1N [Compound 2, (Z)—S-(2-(N-((4-amino-2-methylpyrimidin-5-yl)methyl)formamido)-5-(phosphonooxy)pent-2-en-3-yl) 2-ethylbutanethioate] | 0.9 ± 0.7 | 173.2 ± 98.7 |  |  |  |  |  |
